The values below come from ChEMBL document CHEMBL2311476, “Inhibitory effects of metachromins L-Q and its related analogs against receptor tyrosine kinases EGFR and HER2” (Bioorg Med Chem Lett, 2013).

In experiment [1] the target is Epidermal growth factor receptor (Homo sapiens, UniProt P00533). The experiment in a line: Inhibition of EGFR (unknown origin) by Z-LYTE assay.
The target of experiment [2] is Receptor tyrosine-protein kinase erbB-2 (Homo sapiens, UniProt P04626). The experiment in a line: Inhibition of HER2 (unknown origin) by Z-LYTE assay.
Receptor tyrosine-protein kinase erbB-2, sequence (P04626 whole entry): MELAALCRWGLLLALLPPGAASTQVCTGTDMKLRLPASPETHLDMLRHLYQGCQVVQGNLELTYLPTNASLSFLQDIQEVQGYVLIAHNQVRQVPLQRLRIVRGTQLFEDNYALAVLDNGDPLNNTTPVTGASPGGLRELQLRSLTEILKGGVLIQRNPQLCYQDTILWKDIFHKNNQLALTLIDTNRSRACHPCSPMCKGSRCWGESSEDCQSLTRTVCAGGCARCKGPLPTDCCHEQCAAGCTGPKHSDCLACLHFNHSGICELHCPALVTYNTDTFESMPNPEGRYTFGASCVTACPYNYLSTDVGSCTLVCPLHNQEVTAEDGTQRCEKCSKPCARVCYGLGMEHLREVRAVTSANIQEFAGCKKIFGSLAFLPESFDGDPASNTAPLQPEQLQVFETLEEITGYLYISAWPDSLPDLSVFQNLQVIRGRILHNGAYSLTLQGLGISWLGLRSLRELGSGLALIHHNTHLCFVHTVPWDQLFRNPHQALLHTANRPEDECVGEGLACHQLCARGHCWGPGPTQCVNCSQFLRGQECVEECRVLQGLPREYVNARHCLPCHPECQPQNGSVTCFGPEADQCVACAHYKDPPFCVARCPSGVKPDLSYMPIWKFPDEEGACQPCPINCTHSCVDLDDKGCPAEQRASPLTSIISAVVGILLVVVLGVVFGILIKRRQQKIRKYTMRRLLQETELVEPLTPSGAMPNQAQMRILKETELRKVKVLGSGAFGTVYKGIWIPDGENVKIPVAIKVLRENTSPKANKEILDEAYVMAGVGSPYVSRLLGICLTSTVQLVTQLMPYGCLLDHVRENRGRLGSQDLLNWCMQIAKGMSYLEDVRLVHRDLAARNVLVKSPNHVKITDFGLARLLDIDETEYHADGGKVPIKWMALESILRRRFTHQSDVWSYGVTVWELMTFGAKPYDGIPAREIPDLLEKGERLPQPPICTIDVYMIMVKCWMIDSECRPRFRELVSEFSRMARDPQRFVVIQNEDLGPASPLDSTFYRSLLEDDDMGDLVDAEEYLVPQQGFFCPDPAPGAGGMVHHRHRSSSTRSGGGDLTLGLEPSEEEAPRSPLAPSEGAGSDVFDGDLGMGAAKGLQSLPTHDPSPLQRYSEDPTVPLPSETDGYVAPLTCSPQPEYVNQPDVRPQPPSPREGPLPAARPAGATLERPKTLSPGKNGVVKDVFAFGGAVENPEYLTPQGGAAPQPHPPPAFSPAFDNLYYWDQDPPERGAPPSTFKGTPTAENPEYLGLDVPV
A further experiment concerns KB. The experiment in a line: Cytotoxicity against human KB cells after 48 hrs. It counts as cell-based.
In a further experiment the test system is L1210. The experiment in a line: Cytotoxicity against mouse L1210 cells after 48 hrs. The settings on record: L1210, 48 h. It counts as cell-based.

Converted amounts (≈) assume the structure as drawn.

Epidermal growth factor receptor, sequence (P00533 whole entry): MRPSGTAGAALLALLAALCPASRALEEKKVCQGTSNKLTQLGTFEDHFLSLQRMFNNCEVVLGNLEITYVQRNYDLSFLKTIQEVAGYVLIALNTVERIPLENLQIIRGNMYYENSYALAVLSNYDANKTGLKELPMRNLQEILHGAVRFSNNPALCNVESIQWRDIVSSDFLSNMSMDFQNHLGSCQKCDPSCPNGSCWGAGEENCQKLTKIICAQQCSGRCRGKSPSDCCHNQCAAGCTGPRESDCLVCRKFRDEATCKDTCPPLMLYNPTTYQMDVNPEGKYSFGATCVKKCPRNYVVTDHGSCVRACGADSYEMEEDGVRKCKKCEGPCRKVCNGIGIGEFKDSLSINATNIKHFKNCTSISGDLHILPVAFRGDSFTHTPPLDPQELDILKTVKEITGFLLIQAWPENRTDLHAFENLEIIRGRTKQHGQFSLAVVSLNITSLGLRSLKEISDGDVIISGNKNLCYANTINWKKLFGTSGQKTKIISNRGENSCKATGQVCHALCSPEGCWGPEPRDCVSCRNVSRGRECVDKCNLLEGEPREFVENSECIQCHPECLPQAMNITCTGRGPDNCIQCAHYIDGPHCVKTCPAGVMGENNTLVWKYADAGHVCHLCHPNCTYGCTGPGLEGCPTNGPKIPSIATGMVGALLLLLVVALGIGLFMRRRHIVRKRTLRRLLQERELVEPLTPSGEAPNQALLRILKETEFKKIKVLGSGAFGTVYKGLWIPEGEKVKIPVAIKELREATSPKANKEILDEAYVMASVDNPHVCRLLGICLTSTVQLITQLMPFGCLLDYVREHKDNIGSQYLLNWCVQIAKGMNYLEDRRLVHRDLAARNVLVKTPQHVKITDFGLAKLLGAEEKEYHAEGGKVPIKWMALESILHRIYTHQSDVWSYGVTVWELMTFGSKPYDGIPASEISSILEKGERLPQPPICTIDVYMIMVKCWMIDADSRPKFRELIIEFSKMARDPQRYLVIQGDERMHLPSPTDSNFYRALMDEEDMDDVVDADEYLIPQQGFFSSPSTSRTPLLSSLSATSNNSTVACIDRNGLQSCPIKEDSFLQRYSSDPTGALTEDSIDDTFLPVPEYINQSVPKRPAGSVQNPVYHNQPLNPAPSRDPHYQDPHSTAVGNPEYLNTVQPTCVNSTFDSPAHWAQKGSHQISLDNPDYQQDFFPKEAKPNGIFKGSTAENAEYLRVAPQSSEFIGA

The term IC50 denotes the concentration needed to halve the response being measured. High values mean a need for much substance, low ones inhibition by little substance. For `CC1=CCC[C@](C)(CC/C(C)=C/CC2=C(O)C(=O)C=C(N[C@H](C(=O)O)[C@H](C)O)C2=O)[C@@H]1C`, the half-maximal inhibitory concentration (IC50) in experiment [1] was above 449 µM; in experiment [2], 89.8 µM; in the experiment with KB, above 10 µg/mL; in the experiment on L1210 it was above 10 µg/mL.

Turning to `CC1=CCC[C@](C)(CC/C(C)=C/CC2=C(O)C(=O)C=C(NCC(=O)O)C2=O)[C@@H]1C` [METACHROMIN M], the IC50 in experiment [1] was above 498 µM; in experiment [2] it was 197 µM; in the experiment on KB, 5.4 µg/mL (≈ 13.4 µM); with L1210, 3.5 µg/mL (≈ 8.72 µM).

Consider `CC1=CCC[C@](C)(CC/C(C)=C/CC2=C(O)C(=O)C=C(N[C@@H](CO)C(=O)O)C2=O)[C@@H]1C` [METACHROMIN Q], for which the half-inhibitory concentration (IC50) in experiment [1] was above 463 µM; in experiment [2], 51 µM; with KB it was above 10 µg/mL; in the experiment with L1210 it was above 10 µg/mL.

As for `C=C1[C@H](C)CCC[C@]1(C)CC/C(C)=C/CC1=C(O)C(=O)C=C(OC)C1=O` [METACHROMIN A], the IC50 in experiment [1] is above 558 µM; in experiment [2], above 558 µM; in the experiment on KB, above 10 µg/mL; in the experiment with L1210, 2.4 µg/mL (≈ 6.69 µM).

For `CC1=CCC[C@](C)(CC/C(C)=C/CC2=C(O)C(=O)C=C(N[C@H](C(=O)O)[C@@H](C)O)C2=O)[C@@H]1C` [METACHROMIN O], the IC50 in experiment [1] was above 449 µM; in experiment [2], 60.6 µM; in the experiment with KB it was above 10 µg/mL; in the experiment on L1210, above 10 µg/mL.

On to `C=C1[C@H](C)CCC[C@]1(C)CC/C(C)=C/CC1=C(O)C(=O)C=C(N[C@H](CO)C(=O)O)C1=O`, for which the IC50 in experiment [1] is above 463 µM; in experiment [2], above 463 µM; with KB it was above 10 µg/mL; in the experiment on L1210, 2.6 µg/mL (≈ 6.03 µM).

In the case of `CC1=CCC[C@](C)(CC/C(C)=C/CC2=C(O)C(=O)C=C(N[C@@H](C(=O)O)[C@H](C)O)C2=O)[C@@H]1C`, the IC50 in experiment [1] was above 449 µM; in experiment [2] it was 215 µM; in the experiment with KB, above 10 µg/mL; in the experiment with L1210 it was above 10 µg/mL.

`C=C1[C@H](C)CCC[C@]1(C)CC/C(C)=C/CC1=C(O)C(=O)C=C(N[C@@H](CO)C(=O)O)C1=O` [METACHROMIN P]: the 50% inhibitory concentration (IC50) in experiment [1] was above 463 µM; in experiment [2], 41.7 µM; in the experiment with KB it was above 10 µg/mL; in the experiment on L1210 it was above 10 µg/mL.

Take `COC1=CC(=O)C(O)=C(C/C=C(\C)CC[C@@]2(C)CCC=C(C)[C@H]2C)C1=O` [METACHROMIN C]: the values for the IC50 (in experiment [1]; in experiment [2]; in the experiment on KB) were above 558 µM, above 558 µM and above 10 µg/mL, respectively.

As to `CC1=CCC[C@](C)(CC/C(C)=C/CC2=C(O)C(=O)C=C(N[C@@H](C(=O)O)[C@@H](C)O)C2=O)[C@@H]1C`, the IC50 in experiment [1] is 269 µM; in experiment [2], above 449 µM; in the experiment on KB, above 10 µg/mL; in the experiment on L1210 it was above 10 µg/mL.

Consider `C=C1[C@H](C)CCC[C@]1(C)CC/C(C)=C/CC1=C(O)C(=O)C=C(N[C@H](C(=O)O)C(C)C)C1=O`, for which the IC50 in experiment [1] was 435 µM; in experiment [2], 104 µM; in the experiment with KB, above 10 µg/mL; in the experiment with L1210, 4.4 µg/mL (≈ 9.92 µM).

For `CC1=CCC[C@](C)(CC/C(C)=C/CC2=C(O)C(=O)C=C(N[C@H](C(=O)O)C(C)C)C2=O)[C@@H]1C`, the IC50 in experiment [1] was 293 µM; in experiment [2], 78.9 µM; in the experiment with KB it was above 10 µg/mL; with L1210 it was 3.4 µg/mL (≈ 7.66 µM).

For the compound `C=C1[C@H](C)CCC[C@]1(C)CC/C(C)=C/CC1=C(O)C(=O)C=C(N[C@@H](C(=O)O)C(C)C)C1=O`, the concentration for half-maximal inhibition (IC50) in experiment [1] was 293 µM; in experiment [2] it was 142 µM; in the experiment with KB, 6.2 µg/mL (≈ 14 µM); in the experiment on L1210, 3.4 µg/mL (≈ 7.66 µM).

With `CC1=CCC[C@](C)(CC/C(C)=C/CC2=C(O)C(=O)C=C(N[C@@H](C(=O)O)C(C)C)C2=O)[C@@H]1C`, the IC50 was 334 µM in experiment [1], 83.4 µM in experiment [2], above 10 µg/mL in the experiment on KB and 3 µg/mL (≈ 6.76 µM) in the experiment with L1210.

Consider `C=C1[C@H](C)CCC[C@]1(C)CC/C(C)=C/CC1=C(O)C(=O)C=C(N[C@H](C(=O)O)[C@H](C)O)C1=O`, for which the IC50 in experiment [1] was above 449 µM; in experiment [2], above 449 µM; in the experiment with KB, above 10 µg/mL; in the experiment with L1210 it was above 10 µg/mL.

As to `C=C1[C@H](C)CCC[C@]1(C)CC/C(C)=C/CC1=C(O)C(=O)C=C(N[C@H](C(=O)O)[C@@H](C)O)C1=O` [METACHROMIN N], the IC50 in experiment [1] was above 449 µM; in experiment [2], 426 µM; in the experiment on KB, above 10 µg/mL; in the experiment with L1210 it was above 10 µg/mL.

Regarding `CC1=CCC[C@](C)(CC/C(C)=C/CC2=C(O)C(=O)C=C(N[C@H](CO)C(=O)O)C2=O)[C@@H]1C`, the 50% inhibitory concentration (IC50) in experiment [1] is above 463 µM; in experiment [2], above 463 µM; in the experiment with KB, above 10 µg/mL; in the experiment with L1210, above 10 µg/mL.

In the case of `C=C1[C@H](C)CCC[C@]1(C)CC/C(C)=C/CC1=C(O)C(=O)C=C(N[C@@H](C(=O)O)[C@H](C)O)C1=O`, the IC50 in experiment [1] is above 449 µM; in experiment [2], above 449 µM; in the experiment with KB it was above 10 µg/mL; in the experiment on L1210, 4.6 µg/mL (≈ 10.3 µM).

`C=C1[C@H](C)CCC[C@]1(C)CC/C(C)=C/CC1=C(O)C(=O)C=C(N[C@@H](C(=O)O)[C@@H](C)O)C1=O`: the IC50 is 211 µM in experiment [1], 180 µM in experiment [2], above 10 µg/mL with KB and above 10 µg/mL with L1210.

For `CC1=CCC[C@H]2[C@](C)(CC3=C(O)C(=O)C=C(N[C@@H](CO)C(=O)O)C3=O)[C@@H](C)CC[C@]12C` [NAKIJIQUINONE C], the IC50 was 290 µM in experiment [1], 69.5 µM in experiment [2], 7.6 µg/mL (≈ 17.6 µM) in the experiment on KB and 3.8 µg/mL (≈ 8.81 µM) in the experiment with L1210.

Consider `C=C1[C@H](C)CCC[C@]1(C)CC/C(C)=C/CC1=C(O)C(=O)C=C(NCC(=O)O)C1=O` [METACHROMIN L], for which the IC50 is 491 µM in experiment [1], 311 µM in experiment [2], 4 µg/mL (≈ 9.96 µM) with KB and 4 µg/mL (≈ 9.96 µM) in the experiment with L1210.
